BindingDB's records for doi:10.1073/pnas.83.13.4918 (Merck Sharp & Dohme Research Laboratories, 1986)
Where a SMILES comes first, the peptide text is derived from it. [ ]: non-standard residue; d: D form. The star is where a group is joined. sY = N[C@@H](Cc1ccc(OS(=O)(=O)O)cc1)C(=O)O; Cbz = O=C(OCc1ccccc1)*

How the values were obtained:
[1] = target: GABA(A) receptor-associated protein (Sus scrofa, UniProt D7RA28)
[2] = target: T1, Cholecystokinin (Rattus norvegicus, UniProt P01355)
T1 sequence (P01355 whole entry): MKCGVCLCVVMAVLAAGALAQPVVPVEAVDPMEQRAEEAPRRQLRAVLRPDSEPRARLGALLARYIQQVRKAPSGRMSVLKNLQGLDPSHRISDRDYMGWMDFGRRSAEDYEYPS

[3] = target: Gamma-aminobutyric acid receptor subunit alpha-1 (Rattus norvegicus, UniProt P62813)
Chain of Gamma-aminobutyric acid receptor subunit alpha-1 (P62813 whole entry): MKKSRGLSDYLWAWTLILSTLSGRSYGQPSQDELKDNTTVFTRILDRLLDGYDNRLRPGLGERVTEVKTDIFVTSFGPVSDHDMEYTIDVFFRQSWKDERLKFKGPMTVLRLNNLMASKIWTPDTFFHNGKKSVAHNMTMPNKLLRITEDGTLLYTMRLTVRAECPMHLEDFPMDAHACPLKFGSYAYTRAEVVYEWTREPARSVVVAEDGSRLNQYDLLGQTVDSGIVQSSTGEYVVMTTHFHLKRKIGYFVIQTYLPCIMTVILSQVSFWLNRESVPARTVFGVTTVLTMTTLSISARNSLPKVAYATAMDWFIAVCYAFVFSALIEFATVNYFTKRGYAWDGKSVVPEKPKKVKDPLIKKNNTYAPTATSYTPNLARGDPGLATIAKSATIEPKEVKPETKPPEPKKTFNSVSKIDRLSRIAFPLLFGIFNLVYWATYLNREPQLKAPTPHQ

Chain of GABA(A) receptor-associated protein (D7RA28 whole entry): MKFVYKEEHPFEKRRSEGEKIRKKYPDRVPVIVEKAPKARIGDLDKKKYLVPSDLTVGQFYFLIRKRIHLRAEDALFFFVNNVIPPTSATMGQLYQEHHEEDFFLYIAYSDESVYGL

SMILES	Ki [1]	Ki [2]	Ki [3]
CN1C(=O)[C@H](NC(=O)c2cc3ccccc3[nH]2)N=C(c2ccccc2)c2ccccc21	> 10 µM		
CC(=O)NC1N=C(c2ccccc2F)c2ccccc2NC1=O (centres undefined) [CCK antagonist synthetic 16]		> 10 µM	
Cc1ccc2c(C(=O)NC3N=C(c4ccccc4F)c4ccccc4NC3=O)c[nH]c2c1 (centres undefined) [CCK antagonist synthetic 15]		1.1 µM	
O=C1Nc2ccc(Cl)cc2C(c2ccccc2)=N[C@@H]1Cc1c[nH]c2ccccc12		3.4 µM	> 10 µM
CN1C(=O)[C@@H](Cc2c[nH]c3ccccc23)N=C(c2ccccc2F)c2ccccc21 [CCK antagonist synthetic 11]	> 10 µM	0.27 µM	
O=C(O)CN1C(=O)C(NC(=O)c2cc3ccccc3[nH]2)N=C(c2ccccc2)c2ccccc21 (centres undefined) [CCK antagonist synthetic 20]	> 10 µM	0.0014 µM	
O=C(NC1N=C(c2ccccc2)c2ccccc2NC1=O)c1cc2ccccc2[nH]1 (centres undefined)		0.0047 µM	> 10 µM
CSCC[C@H](NC(=O)[C@H](Cc1ccc(OS(=O)(=O)O)cc1)NC(=O)OCc1ccccc1)C(=O)NCC(=O)N[C@@H](Cc1c[nH]c2ccccc12)C(=O)N[C@@H](CCSC)C(=O)N[C@@H](CC(=O)O)C(N)=O [Benzyloxycarbonyl CCK(27-32)NH2] (Cbz-[sY]MGWMD-NH2)		3.5 µM	
CN1C(=O)[C@@H](Cc2c[nH]c3ccccc23)N=C(c2ccccc2)c2cc(Cl)ccc21 [CCK antagonist synthetic 7]		1.4 µM	
O=C1Nc2ccccc2C(c2ccccc2)=N[C@@H]1Cc1c[nH]c2ccccc12 [CCK antagonist synthetic 8]		1.2 µM	> 10 µM
CN1C(=O)C(NC(=O)c2cc3ccccc3[nH]2)N=C(c2ccccc2)c2cc(F)ccc21 (centres undefined) [CCK antagonist synthetic 22]	7.8 µM	0.0014 µM	
O=C1Nc2ccc(Cl)cc2C(c2ccccc2)=N[C@H]1Cc1c[nH]c2ccccc12 [CCK antagonist synthetic 6]		> 10 µM	5.6 µM
O=C(O)CN1C(=O)[C@@H](Cc2c[nH]c3ccccc23)N=C(c2ccccc2F)c2ccccc21 [CCK antagonist synthetic 13]	> 10 µM	0.3 µM	
O=C(NC1N=C(c2ccccc2F)c2ccccc2NC1=O)c1cc2ccccc2[nH]1 (centres undefined)	3 µM	0.0021 µM	
O=C(NC(Cc1c[nH]c2ccccc12)C(=O)O)c1ccc(Cl)cc1 (centres undefined)		> 10 µM	
Cc1nnc2n1-c1ccccc1C(c1ccccc1F)=NC2Cc1c[nH]c2ccccc12 (centres undefined)	0.8 µM	0.3 µM	
CN1C(=O)[C@@H](NC(=O)c2cc3ccccc3[nH]2)N=C(c2ccccc2)c2ccccc21 [1H-Indole-2-carboxylic acid (1-methyl-2-oxo-5-phenyl-2,3-dihydro-1H-benzo[e][1,4]diazepin-3-yl)-amide: 0.1C4H10O. 0.15CH2Cl2]	> 10 µM		
O=C1Nc2ccccc2C(c2ccccc2F)=N[C@@H]1Cc1c[nH]c2ccccc12 [CCK antagonist synthetic 9]	> 10 µM	0.5 µM	
